This is an account of results in ChEMBL document CHEMBL2346546, “Hit identification of novel heparanase inhibitors by structure- and ligand-based approaches” (Bioorg Med Chem, 2013).

Calls of active or inactive are those of the source. No cut-off for these calls is given here.

The target in assay [1] is T1, Heparanase (Homo sapiens, UniProt Q9Y251).
T1 sequence (Q9Y251 whole entry): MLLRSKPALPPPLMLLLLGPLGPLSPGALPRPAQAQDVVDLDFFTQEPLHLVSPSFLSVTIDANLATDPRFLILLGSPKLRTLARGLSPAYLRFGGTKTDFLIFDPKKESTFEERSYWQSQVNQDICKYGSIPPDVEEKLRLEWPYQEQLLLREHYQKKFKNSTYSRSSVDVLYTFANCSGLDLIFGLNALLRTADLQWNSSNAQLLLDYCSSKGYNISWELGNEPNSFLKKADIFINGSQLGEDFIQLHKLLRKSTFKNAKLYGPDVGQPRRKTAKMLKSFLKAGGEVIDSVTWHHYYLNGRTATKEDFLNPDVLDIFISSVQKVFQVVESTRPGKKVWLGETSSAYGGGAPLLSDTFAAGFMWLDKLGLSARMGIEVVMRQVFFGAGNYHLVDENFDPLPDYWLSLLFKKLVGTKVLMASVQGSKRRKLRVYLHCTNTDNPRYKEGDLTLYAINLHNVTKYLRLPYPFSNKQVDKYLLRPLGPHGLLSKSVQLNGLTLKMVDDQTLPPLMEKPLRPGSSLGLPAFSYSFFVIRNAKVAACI
The assay can be described thus: Binding affinity to recombinant heparanase catalytic stie (unknown origin) expressed in Escherichia coli BL21 (DE3) by surface plasmon resonance assay.

Assay [2] deals with T2, Heparanase (Homo sapiens) (UniProt Q9Y251).
T2 sequence (whole entry): T1 sequence (Q9Y251 whole entry)
The assay can be described thus: Binding affinity to recombinant heparanase catalytic stie (unknown origin) expressed in Escherichia coli BL21 (DE3) by NMR analysis.

Assay [3] addresses T1, Heparanase. The assay can be described thus: Inhibition of recombinant heparanase catalytic stie (unknown origin) expressed in Escherichia coli BL21 (DE3).

`CCOc1ccc(Nc2ccnc3cc(Cl)ccc23)cc1CN1CCCC1`: in assay [1], the Kd (as a rule, the free concentration of one partner at which half of the binding sites on the other are occupied at equilibrium, for simple one-to-one binding) worked out at 169 µM.
On to `COc1cc(N)c(Cl)cc1C(=O)NC1CCN(CCCOc2ccc(F)cc2)CC1OC` (stereo unspecified) [CISAPRIDE], for which, in assay [2], the outcome was Active. The Kd in assay [1] was more than 1000 µM.
Consider `Clc1ccc2c(Nc3ccc(-c4ccco4)c(CN4CCCC4)c3)ccnc2c1`, for which the Kd in assay [1] was more than 1000 µM.
In the case of `COc1ccc(CCN2CCC(Nc3nc4ccccc4n3Cc3ccc(F)cc3)CC2)cc1` [ASTEMIZOLE], in assay [2], the outcome was Active. The Kd in assay [1] was more than 1000 µM.
Take `CCCCCCCCCCCCCCCC(=O)C1=C(OC)[C@@H](CO)OC1=O`: in assay [3], the IC50 (in general, the midpoint of a concentration-inhibition curve) is more than 100 µM.
On the same count and under the same terms, the result for `CCCCCCCCCCCCCCCc1cc(O[C@@H]2OC(C(=O)O)[C@H](O)[C@H](O)C2O)cc(O)c1C(=O)Oc1cc(C)c(C(=O)O)c(O)c1` (stereo partly specified) reads 10 µM.
`CCN(CC)Cc1cc(Nc2ccnc3cc(Cl)ccc23)ccc1Br`: in assay [1], the Kd was more than 1000 µM.
In the case of `CCCCCCCCCCCCCCCC(=O)C1=C(O)[C@@H](CO)OC1=O`, the half-inhibitory concentration (IC50) in assay [3] turned out to be 17 µM.
Take `CN(C)CCCNC(=O)c1cc(NC(=O)CN2CCCCC2)cc(Nc2ccnc3cc(Cl)ccc23)c1`: the Kd in assay [1] was more than 1000 µM.
`CC(CCc1ccccc1)NCC(O)c1ccc(O)c(C(N)=O)c1` (stereo unspecified) [LABETALOL]: the result in assay [2] was Active. Also, in assay [1], the Kd turned out to be 1000 µM.
On to `C[C@@H]1O[C@@H](O[C@H]2[C@H](Oc3cc(O)c4c(c3)O[C@H](c3ccc(O)cc3)CC4=O)O[C@H](CO)[C@@H](O)[C@@H]2O)[C@H](O)[C@H](O)[C@H]1O` [NARINGIN], for which, in assay [2], the outcome was Active. Moreover, the Kd in assay [1] is more than 1000 µM.
The corresponding values for `CN1C[C@H](CNC(=O)OCc2ccccc2)C[C@@H]2c3cccc4c3c(cn4C)C[C@H]21` [METERGOLINE] are “Active” and more than 1000 µM.
As for `CCN(CC)Cc1cc(Nc2ccnc3cc(Cl)ccc23)ccc1N1CCOCC1`, the Kd in assay [1] stood at 239 µM.
Take `COc1ccc([C@@H]2CC(=O)c3c(O)cc(O[C@@H]4O[C@H](CO[C@@H]5O[C@@H](C)[C@H](O)[C@@H](O)[C@H]5O)[C@@H](O)[C@H](O)[C@H]4O)cc3O2)cc1O` [HESPERIDIN]: in assay [2], the outcome was Active. Moreover, the Kd in assay [1] was more than 1000 µM.
Consider `O=C(O)c1ccccc1C(=O)c1ccc(Oc2ccccc2)c([N+](=O)[O-])c1`, for which the IC50 in assay [3] was 1 µM.
In the case of `CN(C)CCNCc1cc(NC(=O)CN2CCCCC2)cc(Nc2ccnc3cc(Cl)ccc23)c1`, the Kd in assay [1] was determined as 639 µM.
On the same count and under the same terms, with `O=C(CN1CCCCC1)Nc1cc(Nc2ccnc3cc(Cl)ccc23)cc(C(=O)N2CCOCC2)c1` the figure was more than 1000 µM.
Regarding `CCN(CC)Cc1cc(Nc2ccnc3cc(Cl)ccc23)ccc1O`, the outcome in assay [2] was Active. The Kd in assay [1] turned out to be 52.6 µM.
As to `O=C(CN1CCCCC1)Nc1cc(CN2CCC(O)CC2)cc(Nc2ccnc3cc(Cl)ccc23)c1`, the Kd in assay [1] turned out to be 1000 µM.
